The values below come from patent US12207654B2, “Bactericidal agent for agricultural or horticultural use, plant disease control method, and product for plant disease control use” (Kureha Corporation, priority 2019, dated 2025).

Experiment [1] concerns Alternaria alternata apple pathotype. The experiment in a line: In vitro antimicrobial activity test on PDA plate media (colony diameter). In kind it is cell-based. The conditions noted are these: used alone.
For the next experiment, the system named is Glomerella cingulata. The description is as above. In kind it is cell-based.
In the next experiment the test system is Penicillium italicum. Described as above. Type of experiment: cell-based. Particulars: for inhibition at 0.13 ppm: Penicillium italicum, read-out: Actual fungal growth inhibition rate (%).
Another experiment concerns Fusarium graminearum. The experiment in a line: microbe, parasite or virus in culture. Type of experiment: cell-based.
The next experiment deals with Pyrenophora graminea. The experiment in a line: In vitro antimicrobial activity test on PDA plate media (colony diameter). In kind it is cell-based. The conditions noted are these: used alone.
A further experiment concerns Microdocum nivale. The experiment is described as above. Type of experiment: cell-based. The conditions noted are these: used alone.
A further experiment relates to Gaeumannomyces graminis. The description is as above. In kind it is cell-based. The conditions noted are these: used alone.
Experiment [2] has as its system wheat leaf rust (Puccinia recondita). The experiment in a line: Controlling effect test against wheat leaf rust (foliar spray on potted wheat seedlings). In kind it is in vivo. Particulars: sprayed alone.
The test system of the next experiment is Fusarium fujikuroi. The experiment in a line: In vitro antimicrobial activity test on PDA plate media (colony diameter). In kind it is cell-based. The conditions noted are these: used alone.
The subject of a further experiment is Cercospora beticola. The experiment in a line: In vitro antimicrobial activity test in 96-well microplate (absorbance at 620 nm). In kind it is cell-based. The conditions noted are these: used alone.
[3] abbreviates: Colletotrichum gloeosporioides, used alone, 0.13 ppm, read-out: Actual fungal growth inhibition rate (%).
Setting [4] is: Colletotrichum gloeosporioides, used alone, 0.50 ppm, read-out: Actual fungal growth inhibition rate (%).
The mark [5] stands for this setting: Alternaria alternata, 0.13 ppm, read-out: Actual fungal growth inhibition rate (%).
Setting [6] is: Pyrenophora graminea, 0.50 ppm, read-out: Actual fungal growth inhibition rate (%).
Setting [7] is: Colletotrichum gloeosporioides, used alone, 0.01 ppm, read-out: Actual fungal growth inhibition rate (%).
Setting [8] is: Fusarium graminearum, read-out: Actual fungal growth inhibition rate (%).
The mark [9] stands for this setting: Gaeumannomyces graminis, 0.13 ppm, read-out: Actual fungal growth inhibition rate (%).

Values joined by “and” are separate entries in the source; they are usually repeats but may differ in a detail not shown here. Equal values may be shown once. Read-outs that look alike come from different tables or passages of the source.

Consider `COC(=O)C(O)(Cn1cncn1)c1ccc(Oc2ccc(C(F)(F)F)cc2)cc1Cl` (stereo not shown) [Azole derivative I-23], for which the “Actual fungal growth inhibition rate (%)” value in experiment [1] (0.03 ppm) amounted to 0%; in experiment [1] (0.13 ppm), 0%; with Glomerella cingulata (used alone, 0.03 ppm), 9%; in the experiment with Glomerella cingulata (used alone, 0.13 ppm), 31%; in the experiment with Glomerella cingulata (used alone, 0.50 ppm), 61%; with Penicillium italicum (used alone, 0.01 ppm), 6%. Besides, the “Actual fungal growth inhibition rate (%)” value with Penicillium italicum (used alone, 0.03 ppm) was 12%; with Penicillium italicum (used alone, 0.13 ppm), 35%; with Penicillium italicum (used alone, 0.50 ppm), 52% and 43%; in the experiment on Fusarium graminearum, 79%; with Pyrenophora graminea (0.08 ppm), 73%; in the experiment with Pyrenophora graminea (0.13 ppm), 81%. Further, the “Actual fungal growth inhibition rate (%)” value with Pyrenophora graminea (0.31 ppm) was 92%; with Pyrenophora graminea (0.50 ppm), 91%; in the experiment on Pyrenophora graminea (1.25 ppm), 95%; with Microdocum nivale (0.01 ppm), 0%; in the experiment on Microdocum nivale (0.13 ppm), 4% and 10%; with Microdocum nivale (0.50 ppm), 27% and 24%. For the same molecule, the “Actual fungal growth inhibition rate (%)” value is reported as 0% in the experiment on Gaeumannomyces graminis (0.01 ppm), 38% in the experiment with Gaeumannomyces graminis (0.03 ppm), 92% with Gaeumannomyces graminis (0.08 ppm) and 94% in the experiment with Gaeumannomyces graminis (5.00 ppm).
Turning to `COC(=O)C(O)(Cn1cncn1)c1ccc(Oc2ccc(Cl)cc2)cc1C(F)(F)F` (stereo not shown) [Azole derivative I-122], the “Actual fungal growth inhibition rate (%)” value in experiment [1] (0.13 ppm) was determined as 0%; in experiment [1] (0.50 ppm) it was 5%; in the experiment with Glomerella cingulata (used alone, 0.01 ppm), 8%; in the experiment on Glomerella cingulata (used alone, 0.03 ppm) it was 14%; in the experiment on Glomerella cingulata (used alone, 0.13 ppm) it was 45%; in the experiment with Glomerella cingulata (used alone, 0.50 ppm) it was 82%. The “Actual fungal growth inhibition rate (%)” value with Fusarium graminearum is recorded as 83%; in the experiment with Pyrenophora graminea (0.13 ppm), 75%; with Pyrenophora graminea (0.50 ppm) it was 82%; in the experiment with Microdocum nivale (0.01 ppm), 0%; in the experiment with Microdocum nivale (0.03 ppm), 0%; with Microdocum nivale (0.13 ppm), 4%. The “Actual fungal growth inhibition rate (%)” value in the experiment with Gaeumannomyces graminis (0.01 ppm) was 0%; with Gaeumannomyces graminis (0.03 ppm) it was 32%; with Gaeumannomyces graminis (0.13 ppm), 70% and 57%; with Gaeumannomyces graminis (0.31 ppm) it was 96%; with Gaeumannomyces graminis (0.50 ppm) it was 97%; with Gaeumannomyces graminis (1.25 ppm) it was 96%.
Molecule `CO/C=C(/C(=O)OC)c1ccccc1Oc1cc(Oc2ccccc2C#N)ncn1` [Azoxystrobin, azoxystrobin, reference compound] gave an Actual controlling rate in experiment [2] (1.25 g/ha) of 47%.
Turning to `Cn1cc(C(=O)Nc2ccc(F)cc2-c2ccc(Cl)c(Cl)c2)c(C(F)F)n1` [Bixafen, bixafen], the “Actual fungal growth inhibition rate (%)” value in experiment [1] (0.03 ppm) is 14%; with Fusarium fujikuroi (0.13 ppm), 13%; in the experiment with Fusarium fujikuroi (0.50 ppm), 19%; in the experiment with Fusarium graminearum (used alone, 0.10 ppm), 6% and 0%; with Pyrenophora graminea (1.56 ppm) it was 75%; in the experiment with Microdocum nivale (0.10 ppm), 0%.
Take `COc1ccnc(C(=O)N[C@H]2COC(=O)[C@H](Cc3ccccc3)[C@@H](OC(=O)C(C)C)[C@H](C)OC2=O)c1OCOC(=O)C(C)C` [Fenpicoxamid, fenpicoxamid]: the “Actual growth inhibition rate” value in the experiment with Cercospora beticola (0.04 ppm) was determined as 28%; in the experiment on Cercospora beticola (0.2 ppm) it was 59%; with Cercospora beticola (1.0 ppm), 60%; in the experiment on Cercospora beticola (5.0 ppm), 100%.
`O=C(NCCc1ncc(C(F)(F)F)cc1Cl)c1ccccc1C(F)(F)F` [Fluopyram, fluopyram, reference compound]: in the experiment with Glomerella cingulata (setting [3]), the inhibition at 0.13 ppm came out at 3%. Also, the inhibition at 0.5 ppm in the experiment with Glomerella cingulata (setting [4]) was 9%; with Fusarium fujikuroi (Fusarium fujikuroi, 0.50 ppm, read-out: Actual fungal growth inhibition rate (%)), 21%. In addition, the inhibition at 0.03 ppm in the experiment on Fusarium fujikuroi (Fusarium fujikuroi, 0.03 ppm, read-out: Actual fungal growth inhibition rate (%)) turned out to be 6%.
On to `CO/N=C(/C1=NOCCO1)c1ccccc1Oc1ncnc(Oc2ccccc2Cl)c1F` [Fluoxastrobin, fluoxastrobin, reference compound], for which the inhibition at 0.13 ppm in experiment [1] (setting [5]) was found to be 48%; with Pyrenophora graminea (Pyrenophora graminea, 0.13 ppm, read-out: Actual fungal growth inhibition rate (%)), 51%. The inhibition at 0.5 ppm in experiment [1] (Alternaria alternata, 0.50 ppm, read-out: Actual fungal growth inhibition rate (%)) worked out at 43%; in the experiment with Glomerella cingulata (setting [4]) it was 48%; in the experiment on Pyrenophora graminea (setting [6]) it was 55%. The results for the “Actual fungal growth inhibition rate (%)” value in the experiment on Pyrenophora graminea (0.13 ppm) and in the experiment with Pyrenophora graminea (0.50 ppm) were 46% and 59%, respectively. For the same molecule, the inhibition at 0.01 ppm in the experiment on Microdocum nivale (0.01 ppm, read-out: Actual fungal growth inhibition rate (%)) came out at 96%.
With `Cn1cc(C(=O)Nc2ccccc2-c2cc(F)c(F)c(F)c2)c(C(F)F)n1` [Fluxapyroxad, fluxapyroxad, reference compound], the “Actual fungal growth inhibition rate (%)” value in the experiment with Gaeumannomyces graminis (0.10 ppm) is 0%; in the experiment on Gaeumannomyces graminis (1.56 ppm), 0% and 9%.
As for `CC(C)c1ccc(Cl)cc1CN(C(=O)c1c(C(F)F)nn(C)c1F)C1CC1` [Isoflucypram, isoflucypram], the “Actual growth inhibition rate” value was found to be 7% in the experiment with Cercospora beticola (0.008 ppm), 3% in the experiment on Cercospora beticola (0.04 ppm), 0% in the experiment on Cercospora beticola (0.2 ppm) and 48% in the experiment with Cercospora beticola (1.0 ppm).
For the molecule `CC(O)(Cn1cncn1)c1ccc(Oc2ccc(Cl)cc2)cc1C(F)(F)F` (stereo not shown) [Mefentrifluconazole, mefentrifluconazole, reference compound], the “Actual fungal growth inhibition rate (%)” value came to 62% in experiment [1] (0.50 ppm); 74% in the experiment on Glomerella cingulata (Glomerella cingulata, single chemical at 0.13 ppm); 17% in the experiment with Glomerella cingulata (used alone, 0.01 ppm); 41% with Glomerella cingulata (used alone, 0.03 ppm); 77% with Glomerella cingulata (used alone, 0.50 ppm); 1% with Microdocum nivale (0.01 ppm). In addition, the “Actual fungal growth inhibition rate (%)” value is listed as 0% in the experiment with Gaeumannomyces graminis (0.002 ppm), 0% in the experiment on Gaeumannomyces graminis (0.01 ppm) and 19% in the experiment on Gaeumannomyces graminis (0.03 ppm).
For the molecule `CC1(C)CCC(Cc2ccc(Cl)cc2)C1(O)Cn1cncn1` (stereo not shown) [Metconazole, metconazole, reference compound], the inhibition at 0.001 ppm in the experiment with Glomerella cingulata (Colletotrichum gloeosporioides, used alone, 0.001 ppm, read-out: Actual fungal growth inhibition rate (%)) turned out to be 4%. Also, the inhibition at 0.003 ppm with Glomerella cingulata (Colletotrichum gloeosporioides, used alone, 0.003 ppm, read-out: Actual fungal growth inhibition rate (%)) amounted to 7%. For the same molecule, the inhibition at 0.01 ppm in the experiment with Glomerella cingulata (setting [7]) came to 28%.
For `CC(C)CC(C)c1sccc1NC(=O)c1cn(C)nc1C(F)(F)F` (stereo not shown) [Penthiopyrad, penthiopyrad], in the experiment on Fusarium graminearum (setting [8]), the inhibition at 1.25 ppm worked out at 7%, the inhibition at 5 ppm is 22% and the inhibition at 20 ppm turned out to be 28%.
On to `OC(Cc1ccccc1Cl)(Cn1nc[nH]c1=S)C1(Cl)CC1` (stereo not shown) [Prothioconazole, prothioconazole, reference compound], for which the inhibition at 0.13 ppm in experiment [1] (setting [5]) amounted to 48%; with Glomerella cingulata (setting [3]), 0%; with Penicillium italicum (used alone, 0.13 ppm), 18%; in the experiment with Penicillium italicum (single chemical at 0.13 ppm) it was 19%; with Microdocum nivale (0.13 ppm, read-out: Actual fungal growth inhibition rate (%)) it was 13%; in the experiment with Gaeumannomyces graminis (setting [9]) it was 0%. The figures for the inhibition at 0.01 ppm in the experiment on Glomerella cingulata (setting [7]) and in the experiment on Fusarium graminearum (setting [8]) were 0% and 1%, respectively. Besides, the inhibition at 0.03 ppm with Glomerella cingulata (Colletotrichum gloeosporioides, used alone, 0.03 ppm, read-out: Actual fungal growth inhibition rate (%)) is 1%; with Fusarium graminearum (setting [8]) it was 19%. Also, the inhibition at 0.5 ppm with Glomerella cingulata (setting [4]) came to 24%; with Pyrenophora graminea (setting [6]), 54%; with Gaeumannomyces graminis (Gaeumannomyces graminis, 0.50 ppm, read-out: Actual fungal growth inhibition rate (%)), 36%.
With `CON(C(=O)c1cn(C)nc1C(F)F)C(C)Cc1c(Cl)cc(Cl)cc1Cl` (stereo not shown) [Pydiflumetofen, pydiflumetofen, reference compound], the Actual controlling rate in [2] (0.63 g/ha) stood at 11%; in [2] (1.25 g/ha) it was 44%; in experiment [2] (2.5 g/ha), 44%; in [2] (5 g/ha), 67%; in experiment [2] (10 g/ha), 83%.
`CCCN(CC)CC1COC2(CCC(C(C)(C)C)CC2)O1` (stereo not shown) [Spiroxamine, spiroxamine, reference compound]: in the experiment with Pyrenophora graminea (Pyrenophora graminea, 0.01 ppm, read-out: Actual fungal growth inhibition rate (%)), the inhibition at 0.01 ppm amounted to 0%. Further, the inhibition at 0.03 ppm with Pyrenophora graminea (Pyrenophora graminea, 0.03 ppm, read-out: Actual fungal growth inhibition rate (%)) came to 0%. Also, in the experiment on Gaeumannomyces graminis (Gaeumannomyces graminis, 0.002 ppm, read-out: Actual fungal growth inhibition rate (%)), the inhibition at 0.002 ppm is 0%. Besides, the inhibition at 0.13 ppm in the experiment with Gaeumannomyces graminis (setting [9]) came out at 0%.

The term inhibition denotes the drop in the measured response relative to a control, in per cent.
